Two molecules from US20240207291A1, “METHODS FOR TREATING POXVIRUS INFECTIONS” (priority 2022, published 2024) can be followed below.

Series [1] in a line: in vitro. The conditions noted are these: hamster.
The subject of series [2] is vaccinia virus (modified vaccinia virus Ankara; MVA). In words: microbe, parasite or virus in culture. In kind it is cell-based.
The nature of series [3]: in vitro. The conditions noted are these: hamster, BHK-21 cells, no virus, 2 days.
For series [4], the system named is Vaccinia virus (MVA strain). Type of series: cell-based.
Where [5] appears, read: CC50, Average of Tests 1-2 (Table 1).
Where [6] appears, read: CC50, Average, Tests 1-3 (Table 1A).
The mark [7] stands for this setting: CC50, Test 2, uninfected BHK-21 cells, 3 days.
Where [8] appears, read: CC50, Test 3, uninfected BHK-21 cells, 3 days.

Molecules are shown by their SMILES. “And” between values parts separate entries of the source, which are not always exact repeats. Equal values may be shown once. Read-outs that look alike come from different tables or passages of the source.

Take `Nc1ccn(C[C@@H](CO)OCP(=O)(O)O)c(=O)n1` [Cidofovir]: the CC50 in the series “in vitro [1]” (setting [5]) is over 100 µM; in “in vitro [1]” (setting [6]), over 73 µM; in “in vitro [1]” (CC50, Test 1, uninfected BHK-21 cells, 3 days), over 100 µM; in the series “in vitro [1]” (setting [7]) it was over 100 µM; in the series “in vitro [1]” (setting [8]), 73 µM. The 50% effective concentration (EC50) in series [2] is 2.6 µM and 7.2 µM; in series [2] (Orthopoxvirus vaccinia) it was 4.9 µM.
Take `CCC(CC)COC(=O)[C@H](C)N[P@](=O)(OC[C@H]1O[C@@](C#N)(c2ccc3c(N)ncnn23)[C@H](O)[C@@H]1O)Oc1ccccc1` [Compound of Formula Ia, (S)-2-ethylbutyl 2-(((S)-(((2R,3S,4R,5R)-5-(4-aminopyrrolo[2,1-f][1,2,4]triazin-7-yl)-5-cyano-3,4-dihydroxytetrahydrofuran-2-yl)methoxy)(phenoxy)phosphoryl)amino)propanoate]: the CC50 in the series “in vitro [1]” (setting [5]) was 12.8 µM; in the series “in vitro [1]” (setting [6]), over 2.5 µM; in “in vitro [1]” (setting [7]), 2.5 µM; in the series “in vitro [1]” (setting [8]), over 50 µM; in the series “in vitro [3]” (CC50, n=3) it was 26.1 µM; in the series “in vitro [3]” (CC50 ± SD, n=4), 28.8 ± 11.5 µM. Besides, the EC50 in series [4] (read-out: Average EC50 ± SD) was 0.773 ± 0.131 µM; in series [4] (read-out: EC50) it was 0.726 µM; in series [2], 2.3 µM and 0.55 µM; in series [2] (Orthopoxvirus vaccinia) it was 1.43 µM.

For orientation: EC50 means the concentration giving half of the maximal effect.
